Experimental data as given in patent US20070060632A1, “Lofexidine” (TEXCONTOR ETABLISSEMENT, priority 2005, published 2007).
Several values for one entry are separate records, joined by “and”; a condition that tells them apart may be missing. Equal entries are not always repeated. Structures can show the parent of a compound that is named as a salt.

Experiments:
[1] = test system: rat model of post-operative pain; experiment: Rat model of post-operative pain (hind paw incision), tactile allodynia by Electronic Von Frey; format: in vivo; conditions: for Tactile Pressure Post-treatment, Average per rat: average of 4 points of one rat; for % Inhibition: Δ Treatment/Δ Blank × 100% / Δ Treatment: Tactile Pressure [(Post-Treatment) − (Pre-Treatment)]: group; for % Inh per rat: individual rat; for Tactile Pressure Post-Treatment: single points (4 per rat), 24 hours after surgery
Method: Lofexidine at 0.00032 and 0.0032 mg/rat injected intrathecally (ITH) was evaluated for possible analgesic activity in a rat model of post-operative pain which was induced with an incision made on the plantar surface of the hind paw. To measure tactile allodynia, a supertip with a flattened surface connected to Electrovonfrey Aesthethiometer (IITC, USA) was applied slowly and gently onto the plantar surface of the hind paw, where 4 points around the incision were identified. The endpoint is the mean withdrawal threshold values (gm) in response to von Frey filament, serving as a measure of analgesic activity. Percent inhibition was calculated as Δ treatment values (change in threshold pressure caused by treatment) relative to Δ blank values (change in threshold value caused by incision). Lofexidine.HCl was dissolved in 0.9% NaCl and at doses of 0.00032 and 0.0032 mg/rat was administered intrathecally (ITH). The dosing volume was 10 μl/rat. Male Wistar derived rats weighing 270±30 g provided by BioLasco Taiwan (under Charles River Laboratories Technology licensee) were used. Space allocation for animals was 45×23×15 cm for 6 rats. Animals were housed in APEC^R cages. All animals were maintained in a controlled temperature (22-24° C.) and humidity (60%-80%) environment with 12 hours light dark cycles for at least one week in MDS Pharma Services-Taiwan Laboratory prior to use. Free access to standard lab chow (Lab Diet, Rodent Diet, PMI Nutrition International, USA) and tap water was granted. All aspects of this work including housing, experimentation and disposal of animals were performed in general accordance with the Guide for the Care and Use of Laboratory Animals (National Academy Press, Washington, D. C, 1996). Groups of 5 male Wistar rats weighing 270±30 g were used. Prior to surgery, individual animals were acclimatised to the testing environment and baseline responses to Electronic Von Frey Aesthesiometer (2290CE Electrovonfrey®, IITC, USA) with a rigid tip were performed (Pre-Incision). Under pentobarbital (50 mg/kg, 5 ml/kg, i.p.) anesthesia, the left hind paw was aseptically prepared. A 1-cm longitudinal incision was made with a number 11 blade, through the skin and fascia of the plantar aspect of the foot, starting 0.5 cm from the proximal edge of the heel and extending toward the toes. The plantaris muscle was elevated and incised longitudinally, followed by crushing with a mosquito hemostat for 20 seconds. The muscle origin and insertion remained intact After hemostasis with gentle pressure, the skin and fascia were then closed as one layer using 4-0 silk suture. Evaluation for pain was performed at 24 hours postoperatively between 08:00 and 16:00 h. Each animal was monitored at 15, 30, 60 and 120 minutes after intrathecal administration of lofexidine.HCl. The rats were placed under inverted plexiglas cages on a wire mesh rack and a brief observation of general behavior post-injection was made. The rigid tip part of the Electronic Von Frey Aesthesiometer was applied perpendicularly from underneath the mesh floor to the four points around the wound surface of the animal with slow upward force against the paw. A positive response to tactile pressure was recorded if the paw was sharply withdrawn; ambulation was considered an ambiguous response, and in such cases, the stimulus was reapplied. Mean values from 4 points for each rat and from 5 rats in each group were calculated. Percent inhibition due to treatment relative to pre-treatment pain response was calculated according to the formula: Tactile Pressure [(Post-Treatment)−(Pre-Treatment)]/[(Pre-Incision)−(Pre-Treatment)]×100%. Inhibition by 50% or more (≧50%) is considered significant analgesic effect. Unpaired Student's t test is applied for comparison of the % inhibition values between test substance-and vehicle-treated groups. Significance is considered at P<0.05 level

[2] = test system: nerve ligation-induced chronic pain model in rats; experiment: Nerve ligation-induced chronic (neuropathic) pain model in rats, mechanical allodynia by Electronic Von Frey; format: in vivo, rat; conditions: for Tactile Pressure Post-Treatment, Average / Tactile Pressure Δ Treatment, Average: average of 5 rats; for Tactile Pressure Post-Treatment / Tactile Pressure Δ Treatment: individual rat
Method: Lofexidine was evaluated for possible analgesic activity in neuropathic pain using a nerve ligation-induced chronic pain model in rats. Lofexidine HCl was administered intrathecally (ITH) at 3.2 and 10 μg/animal and analgesia was measured at 15, 30, 60 and 120 minutes post-dosing using an Electronic Von Frey Aesthesiometer (IITC, USA) with a #12 supertip. A 50% or greater (≧50%) inhibition relative to blank indicates possible analgesic activity. Lofexidine HCl at doses of 3.2 and 10 μg/animal were administered intrathecally. Sterile Saline (obtained from Sintong Biotech Company, Taiwan) was used as vehicle and dosing volume was 10 μl/animal. Male Wistar rats weighing 160 to 200 g were used. Under pentobarbital (50 mg/kg, 5 ml/kg, i.p.) anesthesia, the sciatic nerve was exposed at mid-thigh level. Three ligatures (4-0 silk suture), about 1 mm apart, were loosely tied around the nerve. The animals were then housed individually in cages with soft bedding for 7 days before testing for mechanical allodynia. On the test day, rats were placed under inverted plexiglas cages on a wire mesh rack and allowed to acclimatise for 20 to 30 minutes. Allodynia was evaluated by responsiveness to a #12 Supertip® (IITC, USA) applied beneath the mesh floor perpendicular to the central plantar surface of the left hind paw. The tip was gradually applied with sufficient force to cause slight buckling of the filament against the paw. A positive response to the applied tactile pressure, noted by sharp withdrawal of the paw, was recorded automatically by an Electronic Von Frey Aesthesiometer (2290CE Electrovonfrey®, IITC, USA). The endpoint is the withdrawal threshold (gm) to von Frey filament, serving as a measure of analgesic activity. Rats were pre-selected (for presence of allodynia) for experimentation only if the withdrawal threshold 7 days after nerve ligation (pre-treatment) was reduced by 10 grams of force relative to the response of the individual paw before nerve ligation (pre-ligation). Test substance or vehicle was administered intrathecally (3.2 μg and 10 μg/animal) to groups of 5 animals and the level of allodynia was again determined (at 15, 30, 60 and 120 minutes post-treatment). Allodynia is calculated as follows: % Inhibition=ΔTreatment/ΔBlank×100%; where Δ Treatment is Tactile Pressure [(Post-Treatment)−(Pre-Treatment)] and Δ Blank is Tactile Pressure [(Pre-Ligation)−(Pre-Treatment)]. A 50 percent or greater (≧50%) inhibition relative to blank indicates possible analgesic activity.

chronic pelvic pain = conditions: given orally, dosages of up to 1200 μg per day; cited from earlier work
[3] = systemically (orally or by intravenous injection), especially at high doses (>600 μg per day); cited from earlier work

CC(Oc1c(Cl)cccc1Cl)C1=NCCN1 (centres unmarked) [Lofexidine HCl]
Tactile Pressure Post-treatment, Average per rat ([1]; 0.00032 mg/rat ITH, 15 min.): 18.0 g
% Inhibition: Δ Treatment/Δ Blank × 100% ([1]; 0.00032 mg/rat ITH, 15 min.): 2.6%
Δ Treatment: Tactile Pressure [(Post-Treatment) − (Pre-Treatment)] ([1]; 0.00032 mg/rat ITH, 15 min.): 0.8 g
% Inh per rat ([1]; 0.00032 mg/rat ITH, 15 min.): −7.4% and 2.5% and −5.6% and 8.0%
% Inhibition: Δ Treatment/Δ Blank × 100% ([1]; 0.00032 mg/rat ITH, 30 min.): 7.6%
Δ Treatment: Tactile Pressure [(Post-Treatment) − (Pre-Treatment)] ([1]; 0.00032 mg/rat ITH, 30 min.): 2.3 g
% Inh per rat ([1]; 0.00032 mg/rat ITH, 30 min.): −3.2% and 4.1%
Tactile Pressure Post-Treatment ([1]; 0.00032 mg/rat ITH, 30 min.): 26.0 g and 20.0 g
Tactile Pressure Post-treatment, Average per rat ([1]; 0.00032 mg/rat ITH, 60 min.): 22.0 g
% Inhibition: Δ Treatment/Δ Blank × 100% ([1]; 0.00032 mg/rat ITH, 60 min.): 4.3%
Δ Treatment: Tactile Pressure [(Post-Treatment) − (Pre-Treatment)] ([1]; 0.00032 mg/rat ITH, 60 min.): 1.3 g
% Inh per rat ([1]; 0.00032 mg/rat ITH, 60 min.): −0.7% and 3.0% and 0.8% and 7.4%
Tactile Pressure Post-Treatment ([1]; 0.00032 mg/rat ITH, 60 min.): 22.0 g
% Inhibition: Δ Treatment/Δ Blank × 100% ([1]; 0.00032 mg/rat ITH, 120 min.): 0.3%
Δ Treatment: Tactile Pressure [(Post-Treatment) − (Pre-Treatment)] ([1]; 0.00032 mg/rat ITH, 120 min.): 0.1 g
% Inh per rat ([1]; 0.00032 mg/rat ITH, 120 min.): −2.5% and −7.4% and 2.5% and 4.1% and 4.7%
Tactile Pressure Post-Treatment ([1]; 0.00032 mg/rat ITH, 120 min.): 21.0 g (2×) and 22.0 g and 18.0 g
Tactile Pressure Post-treatment, Average per rat ([1]; 0.0032 mg/rat ITH, 15 min.): 46.0 g
Tactile Pressure Post-Treatment ([1]; 0.0032 mg/rat ITH, 15 min.): 43.0 g and 60.0 g
% Inh per rat ([1]; 0.0032 mg/rat ITH, 30 min.): 47.0%
Tactile Pressure Post-Treatment ([1]; 0.0032 mg/rat ITH, 30 min.): 44.0 g
Δ Treatment: Tactile Pressure [(Post-Treatment) − (Pre-Treatment)] ([1]; 0.0032 mg/rat ITH, 60 min.): 8.9 g
% Inh per rat ([1]; 0.0032 mg/rat ITH, 60 min.): −3.5% and 0.9%
Tactile Pressure Post-Treatment ([1]; 0.0032 mg/rat ITH, 60 min.): 29.0 g
Tactile Pressure Post-treatment, Average per rat ([1]; 0.0032 mg/rat ITH, 120 min.): 22.0 g
% Inhibition: Δ Treatment/Δ Blank × 100% ([1]; 0.0032 mg/rat ITH, 120 min.): 5.5%
Δ Treatment: Tactile Pressure [(Post-Treatment) − (Pre-Treatment)] ([1]; 0.0032 mg/rat ITH, 120 min.): 1.8 g
% Inh per rat ([1]; 0.0032 mg/rat ITH, 120 min.): 1.2% and 5.8% and −2.5% and −8.2%
Tactile Pressure Post-Treatment, Average ([2]; 3.2 μg/animal ITH, 15 Minutes): 12.5 g
Tactile Pressure Δ Treatment, Average ([2]; 3.2 μg/animal ITH, 15 Minutes): 1.3 g
Tactile Pressure Post-Treatment ([2]; 3.2 μg/animal ITH, 15 Minutes): 8.9 g and 5.8 g
Tactile Pressure Δ Treatment ([2]; 3.2 μg/animal ITH, 15 Minutes): -1.8 g and -5.2 g and 8.5 g and 6.3 g and -1.1 g
Tactile Pressure Δ Treatment, Average ([2]; 3.2 μg/animal ITH, 30 Minutes): -1.1 g
Tactile Pressure Post-Treatment ([2]; 3.2 μg/animal ITH, 30 Minutes): 7.4 g and 8.5 g and 10.0 g
Tactile Pressure Δ Treatment ([2]; 3.2 μg/animal ITH, 30 Minutes): -0.5 g and -3.8 g and -0.6 g and 1.4 g and -2.0 g
Tactile Pressure Post-Treatment, Average ([2]; 3.2 μg/animal ITH, 60 Minutes): 9.3 g
Tactile Pressure Δ Treatment, Average ([2]; 3.2 μg/animal ITH, 60 Minutes): -1.8 g
Tactile Pressure Post-Treatment ([2]; 3.2 μg/animal ITH, 60 Minutes): 8.7 g and 7.5 g and 6.5 g
Tactile Pressure Δ Treatment ([2]; 3.2 μg/animal ITH, 60 Minutes): -2.0 g and -3.7 g and -2.1 g and 4.2 g and -5.5 g
Tactile Pressure Post-Treatment, Average ([2]; 3.2 μg/animal ITH, 120 Minutes): 9.2 g
Tactile Pressure Δ Treatment, Average ([2]; 3.2 μg/animal ITH, 120 Minutes): -2.0 g
Tactile Pressure Post-Treatment ([2]; 3.2 μg/animal ITH, 120 Minutes): 8.6 g and 6.1 g and 7.9 g
Tactile Pressure Δ Treatment ([2]; 3.2 μg/animal ITH, 120 Minutes): -2.1 g and -5.1 g and -2.4 g and 0.8 g and -1.2 g
Tactile Pressure Δ Treatment, Average ([2]; 10 μg/animal ITH, 15 Minutes): 13.0 g
Tactile Pressure Post-Treatment ([2]; 10 μg/animal ITH, 15 Minutes): >36.8 g
Tactile Pressure Δ Treatment ([2]; 10 μg/animal ITH, 15 Minutes): 1.5 g and 11.0 g
Tactile Pressure Post-Treatment ([2]; 10 μg/animal ITH, 30 Minutes): 7.0 g and >31.5 g and >35.5 g
Tactile Pressure Δ Treatment ([2]; 10 μg/animal ITH, 30 Minutes): -3.9 g and 4.3 g
Tactile Pressure Post-Treatment ([2]; 10 μg/animal ITH, 60 Minutes): 8.9 g
Tactile Pressure Δ Treatment ([2]; 10 μg/animal ITH, 60 Minutes): 8.4 g and 4.2 g and -2.4 g
Tactile Pressure Post-Treatment, Average ([2]; 10 μg/animal ITH, 120 Minutes): 11.0 g
Tactile Pressure Δ Treatment, Average ([2]; 10 μg/animal ITH, 120 Minutes): 0.6 g
Tactile Pressure Post-Treatment ([2]; 10 μg/animal ITH, 120 Minutes): 6.4 g
Tactile Pressure Δ Treatment ([2]; 10 μg/animal ITH, 120 Minutes): 1.4 g and -0.1 g and 5.2 g and 1.3 g and -4.9 g
time of peak analgesic activity post-dosing ([2]; 10 μg/animal intrathecal): 30 min
analgesic activity at 120 minutes post-dosing ([2]; 10 μg/animal intrathecal, 120 minutes post-dosing): no longer evident
effectiveness in treatment of chronic pelvic pain (chronic pelvic pain): not effective
common symptoms associated with systemic use [3]: drowsiness, sedation and blood pressure and heart rate increases

CC(Oc1c(Cl)cccc1Cl)C1=NCCN1 (centres unmarked) [Lofexidine]
analgesic effect against post-operative pain ([1]; 0.00032 mg/rat ITH): slight analgesic effect
analgesic effect against post-operative pain ([1]; 0.0032 mg/rat intrathecal, 15 and 30 minute time points, compared with Δ blank values): demonstrated analgesic effect
analgesic activity, neuropathic pain ([2]; 3.2 μg/animal intrathecal): low levels of analgesic activity
analgesic activity, neuropathic pain ([2]; 10 μg/animal intrathecal, 30 minutes post-injection): significant analgesic activity
